Results published in US9375436B2, “Androgen treatment in females” (priority 2004, dated 2016).
Entries after “also recorded” stand apart in the source; their conditions may differ.

Columns and labels:
[1] = Level of unconjugated DHEA under routine treatment protocol; assay type: in vivo, human; conditions: 25 mg micronized pharmaceutical grade DHEA TID
Experimental: Routine treatment protocol involves administering about 25 mg of micronized, pharmaceutical grade DHEA, TID, to a human to uniformly raise levels of unconjugated DHEA above 350 ng/dl and, therefore, raise baseline testosterone. In six pregnancies spontaneously conceived, the distribution between female and male offspring was equal, at three and three, respectively. In contrast, in the remaining 15 offspring, which were products of pregnancies achieved through IVF, the distribution was 12 males and 3 females (p=0.035). Amongst women undergoing IVF and PGD, 53 embryos were analyzed from 17 IVF cycles, all having undergone ICSI.
The treatment protocol for long-term supplementation with DHEA that may improve oocyte and embryo quantity, quality, pregnancy rates and time to conception in women with diminished ovarian reserve, involves 25 mg of micronized, pharmaceutical grade DHEA, TID will usually uniformly raise levels of unconjugated DHEA above about 350 ng/dl, and, therefore, raise baseline testosterone. Estradiol baseline levels may also be raised.

[2] = system: embryos of women undergoing IVF; assay: Pre-implantation genetic diagnosis, euploidy rate by length of DHEA usage (Example 3); assay type: in vivo, human
Experimental: In another study (data not shown), patients were analyzed after four weeks of DHEA treatment. Seven patients had embryos tested by pre-implantation genetic diagnosis (PGD). In three women who had PGD after less than four weeks of DHEA usage and a mean age 41.5±5.1 at the time of starting IVF cycles, the euploidy, or normal chromosome number, rate was 2/30 embryos (6.6%). […] There is a mean age difference between patients who underwent IVF after less than four weeks of DHEA usage (mean age 41.5±5.1) and patients who underwent IVF after at least four weeks of DHEA usage (mean age 43.7±1.3).

[3] = Side effects and complications of DHEA supplementation; assay type: in vivo, human
Experimental: We maintained in all studies and treatment protocols the oral medication dosage of about 25 mg TID (three times a day for a total of about 75 mg per day), used by our index patient. […] Studies to determine best dosaging of DHEA in the treatment of DOR have so far not been performed.
Ovarian stimulation was identical for study and control groups and comprised microdose agonist flare, followed by maximal dosage gonadotropin stimulation, using about 300-450 IU of FSH and about 150 IU of HMG. Study patients received DHEA continuously until a positive pregnancy test was obtained or until the patient dropped out of treatment. DHEA and DHEAS levels were monitored monthly, and patients were interviewed at each visit about adverse reactions to DHEA supplementation.

[4] = system: women with diminished ovarian reserve (DOR); assay: IVF cycle and PGD outcomes in DHEA-treated women with DOR (Example 4); assay type: in vivo, human
Description: All the IVF cycles performed at the Center for Human Reproduction (CHR) in New York, N.Y., between 2004 and 2006 for cycles performed in women with a diagnosis of DOR were retroactively reviewed. The study population, involving 27 IVF cycles, was selected amongst those cycles which, in addition, had undergone preimplantation genetic diagnosis (PGD).
The diagnosis of DOR was made based on previously reported abnormally high, age stratified baseline FSH levels. In practical terms, this meant that a diagnosis of DOR was reached if baseline FSH levels exceeded the 95% confidence interval of age appropriate levels, independent of prior IVF retrievals and/or oocyte numbers. At, or above age 43, all patients were considered to suffer from DOR, independent of baseline FSH level.
If under age 40, DHEA was given for up to four months prior to IVF. Women of older age received DHEA, if possible, for at least two months.
For the purpose of this analysis, a patient had to be for at least one month (30 days) on DHEA supplementation in order for the IVF cycle to be considered amongst DHEA-treated cycles. All other DOR patients were considered to have received no DHEA treatment. Following this definition, 19 DOR patients had received no DHEA supplementation, and eight had.
All women with DOR, independent of DHEA supplementation, were stimulated with identical protocols, as previously reported in detail elsewhere. In short, they, without exception, received a microdose agonist protocol with maximal goandotropin stimulation of 600 IU to 750 IU daily, with preponderance of FSH, and a smaller daily amount of human menopausal gonadotropin (hMG).
PGD was performed in routine fashion, as also previously described in detail, and involved the analysis of chromosomes X, Y, 13, 16, 18, 21 and 22 by fluorescence in situ hybridization (FISH) on day three after fertilization. Embryo transfer occurred on day five after fertilization.
Patients were represented by only one cycle outcome in each group. If patients had undergone more than one cycle, either with, or without, DHEA supplementation, only their latest cycle was included in the analysis. Three patients underwent both a pre-DHEA and a post-DHEA cycle and in those cases both cycles were included in the analysis.
Statistical analysis was performed using SPSS for windows, standard version 10.0.7. Data are presented as mean±one standard deviation, unless otherwise noted, and statistical differences between the two study groups were tested by Chi-square and (two-sided) Fisher's Exact Test, where applicable, with significance being defined as p<0.05.

[5] = system: patients with prior clomiphene citrate failures; conditions: 47 patients, 75 mg daily DHEA at least 60 days prior to inseminations; cited from earlier work
[6] = 3 women with DHEA and no-DHEA cycles, DHEA-treated cycle
[7] = DHEA-treated cycles n = 8, PGD by FISH
[8] = DHEA-treated cycles, at least one euploid embryo for transfer

Q: Which “levels of unconjugated DHEA” value [1] does the source give for `C[C@]12CC[C@H](O)CC1=CC[C@@H]1[C@@H]2CC[C@]2(C)C(=O)CC[C@@H]12` [DHEA, Dehydroepiandrosterone] here?
A: Its value is “above 350 ng/dl”.

Q: And the euploidy rate ([2]; PGD after less than four weeks of DHEA usage, three women, 2/30 embryos)?
A: The euploidy rate was 6.6%.

Q: And the euploidy rate ([2]; PGD after more than four weeks of DHEA usage, six patients, 8/27 embryos)?
A: The euploidy rate was 29.6%.

Q: And the side effects ([3]; oral DHEA about 25 mg TID)?
A: The side effects was “small and primarily relate to androgen effects; also recorded: mild transient acne on the face, chest or back, oily skin and mild hair loss; also recorded: appears safe and results in only minor side effects; also recorded: limited to oily skin, rarely mild acne vulgaris and mild hair loss”.

Q: And the complications ([3]; over 1,000 patients supplemented with DHEA)?
A: The complications was “not encountered even a single complication of serious clinical significance”.

Q: What about the “Aneuploid Embryos” value [4, 6] of the same compound?
A: Its value is 2.0 ± 1.8.

Q: What about the “Oocytes ± SD” value [4, 6] of the same compound?
A: Its value is 6.0 ± 4.8.

Q: And the “Total Embryos ± SD” value [4, 6]?
A: The value was 4.0 ± 2.7.

Q: What about the “Embryos ± SD (total number)” value ([4]; DHEA-treated cycles n = 8) of the same compound?
A: Its value is 9.1 ± 7.3.

Q: And the “Oocytes ± SD” value ([4]; DHEA-treated cycles n = 8)?
A: Its value is 10.4±7.3.

Q: And the “Peak Estradiol ± SD” value ([4]; DHEA-treated cycles n = 8, 25 mg TID at least one month)?
A: Its value is 2310.3 ± 1108.1 pg/mL.

Q: And the “% Aneuploid ± SD” value [4, 7]?
A: The value was 55.9 ± 37.8%.

Q: And the “% Euploid ± SD” value [4, 7]?
A: Its value is 44.1 ± 37.8%.

Q: What about the “n Aneuploid ± SD” value [4, 7] of the same compound?
A: Its value is 4.4 ± 3.0.

Q: What about the “n Euploid ± SD” value [4, 7] of the same compound?
A: Its value is 2.1 ± 1.4.

Q: And the “Patients with euploid embryos (%)” value [4, 8]?
A: The value was 100%.

Q: And the “Patients with euploid embryos (n/N)” value [4, 8]?
A: The value was 8/8.

Q: What about the live births [5] of the same compound?
A: The live births was 21.3%.

Q: What about the pregnancy rate [5] of the same compound?
A: The pregnancy rate was 29.8%.
